Values of other authors in patent US10507179B2, “Formulations of levosimendan for intravenous administration as infusion or injection and of infusion concentrate” (CARINOPHARM GmbH, priority 2015, dated 2019).
Converted amounts (≈) assume the structure as drawn. “And” between values parts separate entries of the source, which are not always exact repeats. Equal values may be shown once.

Key:
[1] = not given; remark: listed apart in the source

pKa: 6.3 and 6.26 | solubility ([1]; pH value of 2): 20 µg/mL (≈ 71.4 µM) | stability in aqueous solutions ([1]; physiological pH): not stable | solubility in phosphate buffer ([1]; room temperature, physiological pH of 7.4): 400 µg/mL (≈ 1430 µM)
SMILES: C[C@@H]1CC(=O)NN=C1c1ccc(NN=C(C#N)C#N)cc1 [Levosimendan, (−)-[[4-(1,4,5,6-tetrahydro-4-methyl-6-oxo-3-pyridazi-nyl)phenyl]hydrazono]propane dinitrile]
